Measurements as given in US20230167088A1, “1-PYRAZINYLPYRAZOLYL-3-OXYALKYL ACIDS AND THEIR DERIVATIVES, AND THEIR USE FOR CONTROL OF UNDESIRED PLANT GROWTH” (BAYER AKTIENGESELLSCHAFT, priority 2020, published 2023).

Assays:
ALOMY [1] = test: Herbicidal post-emergence action 1a (greenhouse pots, visual rating); format: in vivo, Alopecurus myosuroides; details: rated visually about 3 weeks after treatment, 100% = plants have died, 0% = like control plants
Method: (§1) [table] a) Seeds of monocotyledonous and dicotyledonous weeds and crop plants are placed in sandy loam in plastic or organic plant pots, covered with soil and cultivated in a greenhouse under controlled growth conditions. 2 to 3 weeks after sowing, the test plants are treated at the one-leaf stage. The compounds of the invention, formulated in the form of wettable powders (WP) or as emulsion concentrates (EC), are then sprayed onto the green parts of the plants as aqueous suspension or emulsion with addition of 0.5% additive at a water application rate of 600 1/ha (converted). After the test plants have been kept in the greenhouse under optimum growth conditions for about 3 weeks, the activity of the preparations is rated visually in comparison to untreated controls. For example, 100% activity=the plants have died, 0% activity=like control plants. Tables A1 to A15 below show the effects of selected compounds of the general formula (I) according to Tables 1 and 2 on various harmful plants and an application rate corresponding to 320 g/ha and/or 80 g/ha, which were obtained by the experimental procedure mentioned above.

AMARE [2] = test: as above; format: in vivo, Amaranthus retroflexus; details: visual rating about 3 weeks after treatment
Method: as §1

VIOTR [3] = test: as above; format: in vivo, Viola tricolor; details: dosage 320 g/ha, visual rating about 3 weeks after treatment
Method: as §1

POAAN [4] = test: Herbicidal post-emergence action 1b (twin sowing, 1280 g/ha); format: in vivo, Poa annua; details: dosage 1280 g/ha, visual rating about 3 weeks after treatment
Method: (§2) [table] b) Seeds of mono- and dicotyledonous weed plants are placed in plastic pots in sandy loam soil (twin sowing with one species each of mono- or dicotyledonous weed plants per pot), covered with soil and cultivated in a greenhouse under controlled growth conditions. 2 to 3 weeks after sowing, the test plants are treated at the one-leaf stage. The compounds of the invention, formulated in the form of wettable powders (WP) or as emulsion concentrates (EC), are applied to the green parts of the plants as aqueous suspension or emulsion with addition of 0.5% additive at a water application rate equivalent to 600 litres per hectare. After the test plants have been kept in the greenhouse under optimum growth conditions for about 3 weeks, the activity of the preparations is rated visually in comparison to untreated controls. For example, 100% activity=the plants have died, 0% activity=like control plants. Tables A16 to A21 below show the effects of selected compounds of the general formula (I) according to Tables 1 and 2 on various harmful plants and at an application rate corresponding to 1280 g/ha, which were obtained by the experimental procedure mentioned above.

STEME [5] = test: as above; format: in vivo, Stellaria media; details: dosage 1280 g/ha, visual rating about 3 weeks after treatment
Method: as §2

ALOMY [6] = test: Herbicidal pre-emergence action 2a (greenhouse pots, visual scoring); format: in vivo, Alopecurus myosuroides; details: dosage 320 g/ha, visual scoring after about 3 weeks
Text: (§3) [table] a) Seeds of monocotyledonous and dicotyledonous weed plants and crop plants are placed in plastic or organic plant pots and covered with soil. The compounds of the invention, formulated in the form of wettable powders (WP) or as emulsion concentrates (EC), are then applied onto the surface of the covering soil as aqueous suspension or emulsion with addition of 0.5% additive at a water application rate of 600 1/ha (converted). After the treatment, the pots are placed in a greenhouse and kept under good growth conditions for the trial plants. After about 3 weeks, the effect of the preparations is scored visually in comparison with untreated controls as percentages. For example, 100% activity=the plants have died, 0% activity=like control plants. Tables B1 to B15 below show the effects of selected compounds of the general formula (I) according to Tables 1 and 2 on various harmful plants and an application rate corresponding to 320 g/ha and/or 80 g/ha, which were obtained by the experimental procedure mentioned above.

VIOTR [7] = test: as above; format: in vivo, Viola tricolor; details: dosage 320 g/ha, visual scoring after about 3 weeks vs untreated controls
Text: as §3

VERPE [8] = test: as above; format: in vivo, Veronica persica; details: dosage 320 g/ha, visual scoring after about 3 weeks vs untreated controls
Text: as §3

POAAN [9] = test: Herbicidal pre-emergence action 2b (doubly sown, 1280 g/ha); format: in vivo, Poa annua; details: doubly sown pots, dosage 1280 g/ha, visual scoring after about 3 weeks
Text: (§4) [table] b) Seeds of mono- and dicotyledonous weed plants are placed in plastic pots in sandy loam soil (doubly sown with one species each of mono- or dicotyledonous weed plants per pot) and covered with soil. The compounds of the invention, formulated in the form of wettable powders (WP) or as emulsion concentrates (EC), are then applied onto the surface of the covering soil as aqueous suspension or emulsion with addition of 0.5% additive at a water application rate equivalent to 600 litres per hectare. After the treatment, the pots are placed in a greenhouse and kept under good growth conditions for the trial plants. After about 3 weeks, the effect of the preparations is scored visually in comparison with untreated controls as percentages. For example, 100% activity=the plants have died, 0% activity=like control plants. Tables B16 to B21 below show the effects of selected compounds of the general formula (I) according to Tables 1 and 2 on various harmful plants and at an application rate corresponding to 1280 g/ha, which were obtained by the experimental procedure mentioned above.

DIGSA = test: as above; format: in vivo, Digitaria sanguinalis; details: doubly sown pots, dosage 1280 g/ha, visual scoring after about 3 weeks
Text: as §4

ECHCG [10] = test: as above; format: in vivo, Echinochloa crus-galli; details: doubly sown pots, dosage 1280 g/ha, visual scoring after about 3 weeks
Text: as §4

AMARE [11] = test: as above; format: in vivo, Amaranthus retroflexus; details: doubly sown pots, dosage 1280 g/ha, visual scoring after about 3 weeks
Text: as §4

MATIN [12] = test: as above; format: in vivo, Matricaria inodora; details: doubly sown pots, dosage 1280 g/ha, visual scoring after about 3 weeks
Text: as §4

MATIN [13] = test: Herbicidal post-emergence action 1b (twin sowing, 1280 g/ha); format: in vivo, Matricaria inodora; details: dosage 1280 g/ha, visual rating about 3 weeks after treatment
Method: as §2

STEME [14] = test: Herbicidal pre-emergence action 2b (doubly sown, 1280 g/ha); format: in vivo, Stellaria media; details: doubly sown pots, dosage 1280 g/ha, visual scoring after about 3 weeks
Text: as §4

AVEFA [15] = test: Herbicidal pre-emergence action 2a (greenhouse pots, visual scoring); format: in vivo, Avena fatua; details: dosage 320 g/ha, visual scoring after about 3 weeks
Text: as §3

LOLRI [16] = test: as above; format: in vivo, Lolium rigidum; details: dosage 320 g/ha, visual scoring after about 3 weeks vs untreated controls
Text: as §3

AMARE [17] = test: as above; format: in vivo, Amaranthus retroflexus; details: dosage 320 g/ha, visual scoring after about 3 weeks vs untreated controls
Text: as §3

POLCO [18] = test: as above; format: in vivo, Polygonum convolvulus; details: dosage 320 g/ha, visual scoring after about 3 weeks vs untreated controls
Text: as §3

MATIN [19] = test: as above; format: in vivo, Matricaria inodora; details: dosage 320 g/ha, visual scoring after about 3 weeks vs untreated controls
Text: as §3

MATIN [20] = test: Herbicidal post-emergence action 1a (greenhouse pots, visual rating); format: in vivo, Matricaria inodora; details: dosage 320 g/ha, visual rating about 3 weeks after treatment
Method: as §1

AVEFA [21] = test: as above; format: in vivo, Avena fatua; details: rated visually about 3 weeks after treatment, 100% = plants have died, 0% = like control plants
Method: as §1

ECHCG [22] = test: as above; format: in vivo, Echinochloa crus-galli; details: Dosage 320 g/ha; rated visually about 3 weeks after treatment; 100% = plants have died, 0% = like control plants
Method: as §1

LOLRI [23] = test: as above; format: in vivo, Lolium rigidum; details: Dosage 320 g/ha; rated visually about 3 weeks after treatment; 100% = plants have died, 0% = like control plants
Method: as §1

SETVI [24] = test: as above; format: in vivo, Setaria viridis; details: rated visually about 3 weeks after treatment, 100% = plants have died, 0% = like control plants
Method: as §1

ABUTH = test: as above; format: in vivo, Abutilon theophrasti; details: visual rating about 3 weeks after treatment
Method: as §1

POLCO [25] = test: as above; format: in vivo, Polygonum convolvulus; details: visual rating about 3 weeks after treatment
Method: as §1

VERPE [26] = test: as above; format: in vivo, Veronica persica; details: visual rating about 3 weeks after treatment
Method: as §1

SETVI [27] = test: Herbicidal pre-emergence action 2a (greenhouse pots, visual scoring); format: in vivo, Setaria viridis; details: dosage 320 g/ha, visual scoring after about 3 weeks vs untreated controls
Text: as §3

SMILES	Post-emergence action against ALOMY in % (ALOMY [1]; Dosage 320 g/ha) [%]	Post-emergence action against AMARE in % (AMARE [2]; dosage 320 g/ha) [%]	Post-emergence action at 1280 g/ha against POAAN in % (POAAN [4]) [%]	Post-emergence action at 1280 g/ha against STEME in % (STEME [5]) [%]	Pre-emergence action against ALOMY in % (ALOMY [6]) [%]	Pre-emergence action against VIOTR in % (VIOTR [7]) [%]	Pre-emergence action against VERPE in % (VERPE [8]) [%]	Pre-emergence action at 1280 g/ha against POAAN in % (POAAN [9]) [%]	Pre-emergence action at 1280 g/ha against DIGSA in % (DIGSA) [%]	Pre-emergence action at 1280 g/ha against AMARE in % (AMARE [11]) [%]	Pre-emergence action at 1280 g/ha against MATIN in % (MATIN [12]) [%]	Post-emergence action at 1280 g/ha against MATIN in % (MATIN [13]) [%]	Pre-emergence action at 1280 g/ha against STEME in % (STEME [14]) [%]	Pre-emergence action against LOLRI in % (LOLRI [16]) [%]	Pre-emergence action against AMARE in % (AMARE [17]) [%]	Post-emergence action against ALOMY in % (ALOMY [1]; Dosage 80 g/ha) [%]	further results
COC(=O)[C@@H](C)Oc1nn(-c2cnccn2)c(-c2ccc(F)nc2)c1C#N [Example I-25]	80	80	90	90	80	90	90	100	100	100	90	–	–	–	–	–	Post-emergence action against VIOTR in % (VIOTR [3]): 90%; Pre-emergence action at 1280 g/ha against ECHCG in % (ECHCG [10]): 90%
O=C(O)COc1nn(-c2cnccn2)c(-c2ccc(F)c(F)c2)c1Br [Example I-41]	–	–	100	–	–	–	–	100	100	100	100	90	100	–	–	–	Pre-emergence action at 1280 g/ha against ECHCG in % (ECHCG [10]): 100%
COC(=O)[C@@H](C)Oc1nn(-c2cnccn2)c(-c2cnc(F)c(F)c2)c1Br [Example I-43]	–	–	100	90	–	–	–	100	100	100	90	100	100	–	–	–	–
CCOC(=O)COc1nn(-c2cnccn2)c(-c2ccc(F)nc2)c1[N+](=O)[O-] [Example I-50]	–	–	90	90	–	–	–	100	100	100	90	90	90	–	–	–	–
C[C@@H](Oc1nn(-c2nccnc2Cl)c(-c2ccc(F)nc2)c1Br)C(=O)O [Example I-75]	–	–	–	–	100	80	–	–	–	–	–	–	–	100	90	–	Pre-emergence action against AVEFA in % (AVEFA [15]): 90%; Pre-emergence action against POLCO in % (POLCO [18]): 80%
CCOC(=O)COc1nn(-c2nccnc2F)c(-c2ccc(F)nc2)c1Br [Example I-76]	–	–	–	–	–	–	–	–	–	–	–	–	–	–	90	–	Pre-emergence action against MATIN in % (MATIN [19]): 90%
COC(=O)COc1nn(-c2nccnc2F)c(-c2ccc(F)nc2)c1Br [Example I-77]	–	–	–	–	–	80	–	–	–	–	–	–	–	–	80	–	Pre-emergence action against MATIN in % (MATIN [19]): 80%
O=C(O)COc1nn(-c2cnccn2)c(-c2ccc(F)nc2)c1C1CC1 [Example I-83]	80	–	–	–	–	–	–	–	–	–	–	–	–	–	–	80	Post-emergence action against MATIN in % (MATIN [20]): 80%
COC(=O)[C@@H](C)Oc1nn(-c2cnccn2)c(-c2ccc(F)nc2)c1I [Example I-89]	100	90	–	–	100	–	100	–	–	–	–	–	–	100	100	80	Post-emergence action against AVEFA in % (AVEFA [21]; Dosage 80 g/ha): 90%; Post-emergence action against AVEFA in % (AVEFA [21]; Dosage 320 g/ha): 100%; Post-emergence action against ECHCG in % (ECHCG [22]): 80%; Post-emergence action against LOLRI in % (LOLRI [23]): 100%; Post-emergence action against SETVI in % (SETVI [24]; Dosage 320 g/ha): 90%; Post-emergence action against ABUTH in % (ABUTH; dosage 80 g/ha): 90%; Post-emergence action against ABUTH in % (ABUTH; dosage 320 g/ha): 90%; Post-emergence action against AMARE in % (AMARE [2]; dosage 80 g/ha): 90%; Post-emergence action against MATIN in % (MATIN [20]): 80%; Post-emergence action against POLCO in % (POLCO [25]; dosage 80 g/ha): 90%; Post-emergence action against POLCO in % (POLCO [25]; dosage 320 g/ha): 90%; Post-emergence action against VERPE in % (VERPE [26]; dosage 80 g/ha): 80%; Post-emergence action against VERPE in % (VERPE [26]; dosage 320 g/ha): 90%; Pre-emergence action against SETVI in % (SETVI [27]): 100%
COC(=O)CNC(=O)[C@@H](C)Oc1nn(-c2cnccn2)c(-c2ccc(F)nc2)c1Br [II-03]	90	90	–	–	100	–	100	–	–	–	–	–	–	100	100	80	Post-emergence action against AVEFA in % (AVEFA [21]; Dosage 320 g/ha): 90%; Post-emergence action against ECHCG in % (ECHCG [22]): 80%; Post-emergence action against SETVI in % (SETVI [24]; Dosage 80 g/ha): 90%; Post-emergence action against SETVI in % (SETVI [24]; Dosage 320 g/ha): 90%; Post-emergence action against POLCO in % (POLCO [25]; dosage 320 g/ha): 80%; Pre-emergence action against AVEFA in % (AVEFA [15]): 100%; Pre-emergence action against SETVI in % (SETVI [27]): 100%; Pre-emergence action against POLCO in % (POLCO [18]): 90%
